Results on 6 molecules are retold here after publication PMC11548001, “Beware of N-Benzoyloxybenzamides” (Molecules, 2024).

Each structure is given as a SMILES string.

Series [1] has as its target T1, acid ceramidase (Homo sapiens, UniProt Q13510).
T1 construct: if using cell lysate, each well contained 7.45 µL assay buffer; endogenous in cells; host or cells: HEK293 cell lysate (supernatant after freeze-thaw and homogenisation)
T1 sequence (Q13510 22-395): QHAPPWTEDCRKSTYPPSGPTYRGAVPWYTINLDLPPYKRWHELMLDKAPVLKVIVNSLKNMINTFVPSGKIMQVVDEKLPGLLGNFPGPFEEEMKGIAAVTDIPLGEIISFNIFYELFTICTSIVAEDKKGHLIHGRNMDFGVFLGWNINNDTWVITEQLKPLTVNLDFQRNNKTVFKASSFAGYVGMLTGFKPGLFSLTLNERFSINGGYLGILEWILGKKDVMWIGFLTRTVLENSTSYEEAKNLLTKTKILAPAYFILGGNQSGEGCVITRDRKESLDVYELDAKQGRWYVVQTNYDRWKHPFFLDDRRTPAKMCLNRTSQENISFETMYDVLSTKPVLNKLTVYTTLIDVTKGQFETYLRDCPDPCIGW
As to the kind of experiment: in-house cell lysate acid ceramidase inhibition assay (HEK293 cell lysate, RBM14-C12 substrate). The class given is biochemical. The procedure: Cultured HEK293 cells were grown until 80-90% confluency, collected, and washed twice in PBS. Collected cell pellets were resuspended in 0.2 M sucrose solution and freeze-thawed three times before being homogenised using a syringe and 25 G needle. Lysed cells were centrifuged at 17,000 g for 30 min at 4°C. The supernatant was collected, and protein quantified using Bradford reagent.
(§1) Acid ceramidase activity assay
(§2) To measure acid ceramidase activity, an assay previously described by Bedia et al., (2010) was miniaturised to a 384-well format. The enzymatic assay was carried out in black flat bottom 384-well plates. Briefly, if using cell lysate, each well contained 7.45 µL assay buffer (25 mM sodium acetate pH 4.5) and 0.05 µL 4 mM RBM14-C12 (Avanti, USA) in ethanol (20 µM final substrate concentration), 2 µg protein in 2.4 µL 0.2 M sucrose, and 0.1 µL compound (control wells contained 0.1 µL DMSO). If using purified acid ceramidase protein (Peak Proteins), the experimental set up was similar, but 100 nM protein was used, and the assay buffer contained 25 mM sodium acetate pH 4.5, 0.1% Pluronic F-127, 0.5 mM EGTA, 0.05% BSA, 1 mM TCEP. Blank wells contained the same reaction mixes but without the protein samples. The reaction started upon addition of the protein sample. The plate was incubated at 37°C for 3 h. The reaction was stopped upon addition of 10 µL fresh detection mix (2.5 mg/mL NaIO4 in 100 mM glycine/NaOH buffer pH 10.6) and the plate incubated for […]

In series [2] the target is T1, acid ceramidase. As to the kind of experiment: HTS acid ceramidase assay (modified reported assay, without Saposin D). The class given is biochemical. From the text: Despite continuing advances in structure-driven research, High-Throughput Screening (HTS) is still a valuable resource to find novel chemical starting points in drug discovery. Recently, the Medicines Discovery Institute initiated an HTS looking for small-molecule inhibitors of acid ceramidase, a lysosomal enzyme. […] This substantial increase in potency can be explained by the fact that to function properly, acid ceramidase requires a co-factor present in cells which was not present in the original HTS assay, Saposin D [4].

Series [3] is described as follows: Stability in DMSO / d6-DMSO at room temperature (LCMS, 1H and 19F NMR). Type of series: physicochemical. As to conditions: for stability of DMSO stock solution (in words): LCMS. The procedure: Key to this was running LCMS analysis on a d6-DMSO NMR sample that was left at room temperature for 6 weeks. Despite also degrading into the carboxylic acid 12, the mass of the other species was different by +6 Daltons compared to the non-deuterated sample. […] To monitor the speed of degradation, a fresh sample was analysed periodically by ^1H and ^19F NMR spectroscopy (Figure 4).

Series [4] has as its target T1, acid ceramidase. As to the kind of experiment: Preincubation acid ceramidase activity assay. As to conditions: pre-incubated at 0, 1 and 3 h at IC50 concentration, 37°C. Type of series: biochemical. The source says: A partially degraded sample was purified by reverse-phase chromatography to isolate the DMSO-addition species. Although only a small amount of material was isolated, ^1H NMR spectroscopic analysis was consistent with the proposed structure (Scheme 3). The ^1H NMR data, in particular, were in line with that reported for a related compound (3f, see Supplementary Material). Such reactivity has been reported between N-pivaloyloxybenzamides and sulfoxides in the presence of an iron catalyst. The decomposition reaction to form a sulfoximine reported in this paper should be of interest to the synthetic community as it proceeds cleanly at ambient temperature without the need for reagents nor a catalyst; however, further optimisation of the reaction is beyond the scope of this paper.
Cultured HEK293 cells were grown until 80-90% confluency, collected, and washed twice in PBS. Collected cell pellets were resuspended in 0.2 M sucrose solution and freeze-thawed three times before being homogenised using a syringe and 25 G needle. […] The supernatant was collected, and protein quantified using Bradford reagent. […]
To measure acid ceramidase activity, an assay previously described by Bedia et al., (2010) was miniaturised to a 384-well format. […] Fluorescence was measured using a microplate reader (PHERAstar FSX; BMG Labtech) at excitation and emission wavelengths of 350 nm and 450 nm […]

Series [5] is described as follows: Reactivity with the amino acid cysteine (LCMS). The class given is physicochemical. As to conditions: LCMS analysis. From the text:
Almost all reported small-molecule inhibitors of acid ceramidase are covalent in their mechanism of action by reaction with cysteine 143 [14, 15, 16, 17, 18, 19, 20, 21, 22]. In some cases, the covalent warhead itself is linked to promiscuity and intrinsic chemical instability. To probe whether 1 was chemically reactive in this way, a sample was stirred with the amino acid cysteine.

In series [6] the target is T1, acid ceramidase. As to the kind of experiment: purified protein acid ceramidase inhibition assay. As to conditions: freshly synthesised sample. Type of series: biochemical. The protocol: as §1, §2
[7] abbreviates: cell lysate assay, supplied (HTS library) samples, read-out: IC50.

On to `CS(C)(=O)=NC(=O)c1ccc(OC(F)F)cc1` [compound 13], for which the “activity (in words)” value at acid ceramidase [1] (cell lysate assay) is on record as “no activity”.
Same read-out and setting: as for `O=C(O)c1ccc(N2CCCCCC2)c([N+](=O)[O-])c1` [compound 12], the entry is “inactive”.
In the case of `CC(C)(C)c1ccc(C(=O)NOC(=O)c2ccc(Cl)c(Cl)c2)cc1` [compound 2], the IC50 at acid ceramidase [1] (setting [7]) worked out at 237 nM. Besides, the “inhibition (in words)” value against acid ceramidase [2] (Figure 1) is reported as “moderate inhibition”.
Regarding `O=C(Nc1ccc(OC(F)F)cc1)Nc1ccc(OC(F)F)cc1` [compound 8], the concentration for half-maximal inhibition (IC50) at acid ceramidase [1] (cell lysate assay, read-out: IC50) is ~100000 nM.
Regarding `O=C=Nc1ccc(OC(F)F)cc1` [compound 7], the concentration for half-maximal inhibition (IC50) at acid ceramidase [1] was ~100000 nM. The “stability of DMSO stock solution (in words)” value in series [3] is on record as “fully hydrolysed to 8”.
For the molecule `O=C(NOC(=O)c1ccc(N2CCCCCC2)c([N+](=O)[O-])c1)c1ccc(OC(F)F)cc1` [compound 1], the “inhibition after pre-incubation (in words)” value against acid ceramidase [4] is given as “time-dependent inhibition pattern expected of a covalent inhibitor”. Moreover, the 50% inhibitory concentration (IC50) on acid ceramidase [1] (cell lysate assay with addition of EDTA, read-out: IC50) came to 7 nM; at acid ceramidase [1] (cell lysate assay with addition of N,N,N′,N′-tetrakis(2-pyridinylmethyl)-1,2-ethanediamine (Zn2+ chelator), read-out: IC50), 8 nM; at acid ceramidase [1] (cell lysate assay, freshly synthesised sample, read-out: IC50) it was 3.2 nM; on acid ceramidase [1] (setting [7]), 11 nM; against acid ceramidase [6], 163 nM; at acid ceramidase [2] (library sample) it was 340 nM. Further, in series [5], the “stability when stirred with cysteine (in words)” value is “slowly decomposed into two main chemical species”. Also, the “stability of DMSO stock solution (in words)” value in series [3] is listed as “slowly degraded into two species”. In addition, in series [3] (d6-DMSO, room temperature, 1H and 19F NMR integrations against time), the estimated half-life entry is given as “just over two days”.
